Data published in patent publication US20240066045A1, “SEMICARBAZONE-BASED SAPONIN CONJUGATE” (priority 2020, published 2024).
Where two headings read alike, the source gives them in different places.

Legend:
[1] = system: HeLa cells; assay: Cell toxicity (MTS), saponin alone; format: cell-based
Description: (§1) Cell viability was determined by an MTS-assay, performed according to the manufacturer's instruction (CellTiter 96® AQueous One Solution Cell Proliferation Assay, Promega). Briefly, the MTS solution was diluted 20× in DMEM without phenol red (PAN-Biotech GmbH) supplemented with 10% FBS (PAN-Biotech GmbH). The cells were washed once with 200 μL PBS per well, after which 100 μL diluted MTS solution was added per well. The plate was incubated for approximately 20-30 minutes at 37° C. Subsequently, the optical density at 492 nm was measured on a Thermo Scientific Multiskan FC plate reader (Thermo Scientific). For quantification the background signal of ‘medium only’ wells was subtracted from all other wells, before the ratio of untreated/treated cells was calculated, by dividing the background corrected signal of untreated wells over the background corrected signal of the treated wells.

[2] = system: HSP27 mRNA in A431 cells; assay: HSP27 gene silencing (HSP27 mRNA expression, qPCR); format: cell-based; conditions: saponin titrated + 50 nM Trastuzumab-HSP27BNA
Excerpt: RNA from cells was isolated and analysed according to standard protocols (Biorad).

[3] = CMC determination (ANS fluorescence); format: physicochemical
Description: The critical micellar concentration (CMC) of saponins derived from Saponaria Officinalis (SO) was determined by the method of DeVendittis et al. (www.sciencedirect.com/science/article/pii/0003269781900063, doi.org/10.1016/0003-2697(81)90006-3, Analytical Biochemistry, Volume 115, Issue 2, August 1981, Pages 278-286) as follows: The emission spectrum of 8-Anilinonaphthalene-1-sulfonic acid (ANS) in either purified water (MQ) or PBS (Dulbecco's PBS+/+) was determined at dry weight concentrations of saponins ranging from 1 to 1400 μM to cover the range below and above the CMC. Above the CMC, the fluorescence yield of ANS increases and the wavelength of maximum emission decreases due to portioning of the fluorescent dye into micelles. Fluorescence yields were recorded on a Fluoroskan Ascent FL (Thermo Scientific) at an excitation wavelength of 355 nm, and an emission wavelength of 460 nm. 6 μg at a concentration of 75.86 μM of ANS were used per sample and measurement.

[4] = system: human red blood cells (RBC); assay: Haemolysis assay; format: cell-based; conditions: fresh human red blood cells
Description: Red blood cells (RBCs) were isolated from a buffy coat using a Ficoll gradient. The obtained RBC pellet (˜4-5 ml) was washed 2× with 50 ml DPBS (without Ca^2+/Mg^2+, PAN-Biotech GmbH). Cells were pelleted by centrifugation for 10 min, 800×g at RT. RBC were counted and resuspended at 500.000.000 c/ml in DPBS (without Ca^2+/Mg^2+), based on total cell count. SO1861-linker dilutions were prepared in DPBS (with Ca^2+/Mg^2+, PAN-Biotech GmbH), at 1.11× final strength. For positive lysis control a 0.02% Triton-X100 solution was prepared in DPBS^+/+. Of all compound solutions 135 μl was dispensed/well in a 96 well V-bottom plate. To this 15 μl RBC suspension was added and mixed shortly (10 sec—600 rpm). The plate was incubated 30 min at RT, with gentle agitation. Afterwards the plate was spun for 10 min at 800×g to pellet the RBC and 100-120 μl supernatant was transferred to a standard 96 wp. Subsequently, the OD at 405 nm was measured on a Thermo Scientific Multiskan FC plate reader (Thermo Scientific). For quantification the background signal of ‘DPBS^+/+ only’ wells was subtracted from all other wells before the percentage of hemolysis was calculated in comparison to 0.02% Triton-X100, by dividing the background corrected signal of treated wells over the background corrected signal of the 0.02% Triton-X100 wells (×100).

[5] = system: A431 cells; assay: Cell toxicity (MTS), saponin alone; format: cell-based
Description: as §1

[6] = system: A431 cells; assay: Cell killing assay (MTS): saponin titrated on fixed non-effective concentration of targeted toxin (endosomal escape enhancing activity); format: cell-based
Description: as §1

[7] = system: HeLa cells; assay: as above; format: cell-based; conditions: for IC50: read-out: IC50 nM (Activity; + 5 pM EGFdianthin), HeLa cells, + 5 pM EGFdianthin
Description: as §1

[8] = system: serum LDL-cholesterol (LDL-C); assay: In vivo efficacy: serum LDL-cholesterol; parameters: species or system C57BL/6J mice
Description: (§2) In Vivo Tolerability and Efficacy of Trivalent GalNAc-Conjugates in a C57BL/6J Model • Dose administration and in-life phase. Per group, 8 C57BL/6J male mice for treatment groups (in study A, 14 mice in vehicle control group), approximately 6-7 weeks at arrival and 8-9 weeks at dosing, were dosed. The compounds, formulated in PBS or PBS alone (vehicle) according to Table A5 and Table A6, were dosed at 5 ml/kg in the tail vain (intravenously, iv), with dose volumes corresponding to the individual bodyweights. Where applicable, trivalent (GalNAc)3-SO1861 (EMCH) was co-administered at 5 ml/kg in the tail vain (iv) right after the trivalent GalNAc-ApoB conjugate. Animals were weighed weekly and clinical observations were performed 2-3 times daily within the first 48 hrs, and at least once daily thereafter until study end. • Sampling of serum, liver, and kidney tissue. […] At the relevant inter-study post-dose timepoints, 3 animals per timepoint per treatment group (6 animals in the vehicle control group in study A) were sacrificed to collect terminal bleeds and collect relevant organs, such as liver and kidney tissues for further analyses. at end of study, the remaining 2 animals (4 in the control group in study A) per group were sacrificed. One half of the liver and one kidney was frozen and used for tissue RNA analysis.
LDL-cholesterol was measured in mouse serum, using an LDL-cholesterol specific two-step AU480 assay kit, respectively, from Beckman Coulter, with a photometric measurement according to the manufacturer's instructions.

[9] = In vivo tolerability: clinical observations, body weight, serum ALT; parameters: species or system C57BL/6J mice; conditions: study A; doses and dose regimens of Table A5, iv
Description: In Vivo Tolerability and Efficacy of Trivalent GalNAc-Conjugates in a C57BL/6J Model • Dose administration and in-life phase. Per group, 8 C57BL/6J male mice for treatment groups (in study A, 14 mice in vehicle control group), approximately 6-7 weeks at arrival and 8-9 weeks at dosing, were dosed. The compounds, formulated in PBS or PBS alone (vehicle) according to Table A5 and Table A6, were dosed at 5 ml/kg in the tail vain (intravenously, iv), with dose volumes corresponding to the individual bodyweights. Where applicable, trivalent (GalNAc)3-SO1861 (EMCH) was co-administered at 5 ml/kg in the tail vain (iv) right after the trivalent GalNAc-ApoB conjugate. Animals were weighed weekly and clinical observations were performed 2-3 times daily within the first 48 hrs, and at least once daily thereafter until study end. • Sampling of serum, liver, and kidney tissue. […]
Serum alanine transaminase (ALT) levels was measured using an AU480 assay kit from Beckman Coulter (photometric measurements), according to the manufacturer's instructions.

[10] = system: apoB RNA in primary human hepatocytes; assay: apoB RNA expression analysis (qRT-PCR) after 72 hr treatment; format: cell-based; conditions: read-out: IC50 apoB RNA levels
Description: RNA from cells was isolated using TRI Reagent® Solution (Thermo Scientific) according to the manufacturer's instruction. Conversion into cDNA was performed using iScript™ cDNA Synthesis Kit (BioRad) using standard protocols. ApoB expression levels and levels of specific hepatocyte housekeeping genes were determined using quantitative real-time PCR assays (qRT-PCR) using iTaq™ Universal SYBR® Green Supermix (BioRad) and the Light Cycler 480 (Roche Diagnostics, Rotkreuz, Switzerland) with specific DNA primers, listed in Table A4. Analysis was done by the ΔCt method to determine ApoB expression relative to 2 hepatocyte-specific housekeeping control mRNAs. Each analysis reaction was performed in triplicate.
Covalent binding of the saponin to the GalNAc/oligonucleotide conjugate via a semicarbazone bond thus results in increased efficacy when relative apoB RNA levels are considered and compared with levels measured in cells which were contacted with a conjugate comprising saponin linked via a hydrazone bond to the GalNAc/oligonucleotide conjugate. Without wishing to be bound by any theory, improved efficacy of the release of free saponin from the conjugate, when the conjugate is transferred into the endosome, is at the basis for the improved potency of the oligonucleotide, as obtained with the conjugate comprising saponin bound via semicarbazone. […]

[11] = system: apoB protein in serum; assay: In vivo efficacy: serum apoB protein (ELISA); parameters: species or system C57BL/6J mice; conditions: study B; 2 mg/kg; 72 hrs post-dose
Description: as §2, with “[…] […]” for “The compounds, formulated in PBS or PBS alone (vehicle) according to Table A5 and Table A6, were dosed at 5 ml/kg in the tail vain (intravenously, iv), with dose volumes corresponding to the individual bodyweights. Where applicable, trivalent (GalNAc)3-SO1861 (EMCH) was co-administered at 5 ml/kg in the tail vain (iv) right after the trivalent GalNAc-ApoB conjugate.”
ApoB protein levels in mouse serum was determined using an ApoB ELISA (ab230932, Abcam, Cambridge, UK), according to the manufacturer's instruction.

[12] = system: apoB RNA in liver tissue; assay: In vivo efficacy: apoB RNA in liver tissue (qRT-PCR); parameters: species or system C57BL/6J mice; conditions: for reduction of liver apoB RNA compared to vehicle: study A
Description: as §2
The mRNA was isolated from frozen liver tissue using TRizol® Reagent (Thermo Scientific) according to the manufacturer's instruction. Conversion into cDNA was performed using iScript™ cDNA Synthesis Kit (BioRad). ApoB expression levels and levels of specific liver housekeeping genes were determined using quantitative real-time PCR assays (qRT-PCR) using iTaq™ Universal SYBR® Green Supermix (BioRad) and the Light Cycler 480 (Roche Diagnostics, Rotkreuz, Switzerland) with specific DNA primers, listed in Table A4 (study A) and Table A7 (study B), respectively. Analysis was done by the ΔCt method to determine ApoB expression relative to 2 liver-specific housekeeping control mRNAs. Each analysis reaction was performed in triplicate.

## CC(=O)OC1C(C)OC(OC2C(C)OC(OC(=O)[C@]34CCC(C)(C)CC3C3=CCC5[C@@]6(C)CC[C@H](OC7OC(C(=O)O)C(O)C(OC8OCC(O)C(O)C8O)C7OC7OC(CO)C(O)C(O)C7O)[C@@](C)(C=NNC(=O)N7CCN(C(=O)CCCCCN8C(=O)C=CC8=O)CC7)C6CC[C@@]5(C)[C@]3(C)C[C@H]4O)C(OC3OC(C)C(OC4OCC(O)C(OC5OC(CO)C(O)C(O)C5O)C4O)C(O)C3O)C2O)C(O)C1OC1OCC(O)C(O)C1O (some centres unmarked) [SO1861-SC-Mal]
[1]
  IC50: > 100 µM
[2]
  IC50: 0.6 µM
[3]; listed as SO1861-Semicarbazone Mal
  CMC: >800 µM
[3]; listed as SO1861-semicarbazone Mal
  CMC: >800 µM
[4]
  IC50: 250 µM

## CC(=O)O[C@H]1[C@H](O[C@@H]2OC[C@@H](O)[C@H](O)[C@H]2O)[C@@H](O)[C@H](O[C@@H]2[C@H](O)[C@@H](O[C@@H]3O[C@@H](C)[C@H](O[C@@H]4OC[C@@H](O)[C@H](O[C@@H]5O[C@H](CO)[C@@H](O)[C@H](O)[C@H]5O)[C@H]4O)[C@@H](O)[C@H]3O)[C@H](OC(=O)[C@]34CCC(C)(C)C[C@H]3C3=CC[C@@H]5[C@@]6(C)CC[C@H](O[C@@H]7O[C@H](C(=O)O)[C@@H](O)[C@H](O[C@@H]8OC[C@@H](O)[C@H](O)[C@H]8O)[C@H]7O[C@@H]7O[C@H](CO)[C@H](O)[C@H](O)[C@H]7O)[C@@](C)(C=O)[C@@H]6CC[C@@]5(C)[C@]3(C)C[C@H]4O)O[C@@H]2C)O[C@@H]1C [SO1861]
[5]; Homo sapiens, A-431
  IC50: 2 µM
[1]; Homo sapiens
  IC50: 9 µM
[6]; Homo sapiens, A-431, read-out: IC50 nM (Activity; + 5 pM EGFdianthin), + 5 pM EGFdianthin
  IC50: 300 nM
[7]; HeLa and A431, + 5 pM EGFdianthin or 10 pM cetuximab-saporin or 50 pM Trastuzumab-saporin
  activity compared with the SO1861 derivatives: strongest activity
[7]; Homo sapiens
  IC50: 500 nM
[3]
  CMC: 120 µM
[4]; Erythrocyte
  IC50: 10 µM

## 5′-GCattggtatTCA-3′ (GCATTGGTATTCA; listed as DNA, chemistry not fully specified) [ApoB #02 BNA]
[8]; study A, 2 mg/kg, 72 hrs
  reduction of serum LDL-C compared to vehicle: ca. 50%
[8]; study A, 2 mg/kg, 336 hrs
  reduction of serum LDL-C compared to vehicle: ca. 40%
[8]; study A, 0.1, 1, or 2 mg/kg, 24 hrs
  serum LDL-C levels compared to vehicle: not noticeably reduced
[8]; study B, 2 mg/kg, 72 hrs post-dose
  serum LDL-C: 2 mg/dL
[9]
  tolerability (clinical observations): well tolerated
[10]; relative ApoB #02 BNA concentration, no transfection agent (FIG. 19A)
  IC50: 0.4 µM
[10]; transfection with RNAi-MAX
  IC50: 0.008 µM
[11]
  serum apoB protein: 57 µg/mL
[12]; 0.1 mg/kg iv, 24 hrs
  reduction of liver apoB RNA compared to vehicle: not noticeably reduced
[12]; 1 mg/kg iv, 24 hrs
  reduction of liver apoB RNA compared to vehicle: ~15%
[12]; 2 mg/kg iv, 24 hrs
  reduction of liver apoB RNA compared to vehicle: ~21%
[12]; 2 mg/kg iv, 72 hrs
  reduction of liver apoB RNA compared to vehicle: 39%
[12]; 2 mg/kg iv, 336 hrs
  reduction of liver apoB RNA compared to vehicle: 30%
[12]; study B, 2 mg/kg, 72 hrs
  liver apoB RNA levels, % of vehicle control: 53%

## CC(=O)OC1C(C)OC(OC2C(C)OC(OC(=O)[C@]34CCC(C)(C)CC3C3=CCC5[C@@]6(C)CC[C@H](OC7OC(C(=O)O)C(O)C(OC8OCC(O)C(O)C8O)C7OC7OC(CO)C(O)C(O)C7O)[C@@](C)(/C=N/NC(=O)CCCCCN7C(=O)C=CC7=O)C6CC[C@@]5(C)[C@]3(C)C[C@H]4O)C(OC3OC(C)C(OC4OCC(O)C(OC5OC(CO)C(O)C(O)C5O)C4O)C(O)C3O)C2O)C(O)C1OC1OCC(O)C(O)C1O (some centres unmarked) [SO1861-EMCH]
[5]
  IC50: > 30 µM
[1]
  IC50: > 100 µM
[6]; + 50 pM Trastuzumab-saporin, read-out: IC50 cell killing
  IC50: 2500 nM
[6]; read-out: IC50 nM (Activity; + 5 pM EGFdianthin), + 5 pM EGFdianthin
  IC50: 3000 nM
[7]
  IC50: 4000 nM
[4]
  IC50: > 500 µM
